Results published in patent US20230357320A1, “HELICAL STAPLED PEPTIDES AND USES THEREOF” (FOG PHARMACEUTICALS, INC., priority 2020, published 2023).
Starred links: 1 amine or outer side, 2 acyl side, 3 side chain; linkers in the order of their positions; H or OH if unused. Positions of bridges follow the written chain, without caps; N, C: chain ends. Non-standard residues stand in square brackets, D forms with d. Residues, ends and D or L forms follow the SMILES beside them. X1 = O=C([C@]1(CC=[*:3])CCCN1[*:1])[*:2]; αAllylPro = C=CC[C@@]1(C(=O)O)CCCN1; Ala(cPr) = N[C@@H](CC1CC1)C(=O)O; S5 = C=CCCC[C@](C)(N)C(=O)O

Columns and labels:
[1] = design: PAMPA Pe: dose or concentration left out as unconfirmed; conditions: for % Retention: PAMPA; for PAMPA Pe: 5 h, pH 7.4
[2] = CHI Log D measurement (chromatographic hydrophobicity index); conditions: pH 7.4
in vitro = experiment: in vitro; design: dose or concentration left out as unconfirmed; conditions: PAMPA
[3] = reverse-phase HPLC, Phenomenex Gemini C-18 column
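For % Retention in this document: Phospholipid-membrane PAMPA, donor and acceptor in DPBS pH 7.4 with 5% DMSO, 37 °C for 5 h, compound in each well quantified by reverse-phase HPLC-MS.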
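For PAMPA Pe in this document: Phospholipid-membrane PAMPA, donor and acceptor in DPBS pH 7.4 with 5% DMSO, 37 °C for 5 h, compound in each well quantified by reverse-phase HPLC-MS.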
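For Papp in this document: Phospholipid-membrane PAMPA, donor and acceptor in DPBS pH 7.4 with 5% DMSO, 37 °C for 5 h, compound in each well quantified by reverse-phase HPLC-MS.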

Molecule	% Retention [1] [%]	chromatographic logD [2]	Papp at 5 h (in vitro; pH 7.4, PAMPA Pe) [×10⁻⁶ cm/s]	chromatographic logD [2, 3]	PAMPA Pe [1]	Papp at 5 h (in vitro; pH 7.4, average effective permeability (Pe) of control on accepted PAMPA plates) [×10⁻⁶ cm/s]	logD [2]
CNC(=O)[C@H](CC(=O)O)NC(=O)[C@H](CCC(N)=O)NC(=O)[C@H](CC(C)C)NC(=O)[C@H](CC(C)C)NC(=O)[C@H](Cc1ccc(O)cc1)NC(=O)[C@]1(C)CCCC=CC[C@]2(CCCN2C(C)=O)C(=O)O[C@@H](CC(C)C)C(=O)N[C@@H](CC(C)C)C(=O)N1 (single isomer, unassigned) [PLL7-7 variant 2, Ac-PL3-Lec-Leu-S5-Tyr-Leu-Leu-Gln-Asp-NHMe]	64 ± 1	2.6	≤ 0.1	–	–	–	–
CNC(=O)[C@H](CC(N)=O)NC(=O)[C@H](CC(C)C)NC(=O)[C@H](CC(C)C)NC(=O)[C@H](Cc1c[nH]cn1)NC(=O)[C@]1(C)CCCC=CCCC[C@](C)(NC(C)=O)C(=O)N[C@@H](C)C(=O)N[C@@H](C)C(=O)N[C@@H](CC(C)C)C(=O)N1 [PLL7-20 variant 4, Ac-S5-Ala-Ala-Leu-S5-His-Leu-Leu-Asn-NHMe] (Ac-[S5]AAL[S5]HLLN-NHMe; staple 1-5)	74 ± 6	2.6	≤ 0.1	–	–	–	–
CNC(=O)[C@H](Cc1ccc(O)cc1)NC(=O)[C@@H](NC(=O)[C@H](CC(C)C)NC(=O)[C@H](CC(C)C)NC(=O)[C@H](CC(N)=O)NC(=O)[C@]1(C)CCCC=CCCC[C@](C)(NC(C)=O)C(=O)N[C@@H](C)C(=O)N[C@@H](CCCCN)C(=O)N[C@@H](CC(C)C)C(=O)N1)[C@@H](C)O [PLL4-5 variant 4, Ac-S5-Ala-Lys-Leu-S5-Asn-Leu-Leu-Thr-Tyr-NHMe] (Ac-[S5]AKL[S5]NLLTY-NHMe; staple 1-5)	79 ± 3	2.2	≤ 0.1	–	–	–	–
CC(=O)N1CCC[C@]12CC=CCCC[C@@](C)(C(=O)N[C@@H](CC(N)=O)C(=O)N[C@@H](CC(C)C)C(=O)N[C@@H](CC(C)C)C(=O)N[C@H](C(=O)N[C@@H](Cc1ccc(O)cc1)C(N)=O)[C@@H](C)O)NC(=O)[C@H](CC(C)C)NC(=O)[C@H](CCCCN)NC2=O (single isomer, unassigned) [PLL4-5 variant 3, Ac-PL3-Lys-Leu-S5-Asn-Leu-Leu-Thr-Tyr-NH2]	78 ± 8	1.6	0.4 ± 0.1	–	–	–	–
CNC(=O)[C@H](Cc1ccc(O)cc1)NC(=O)[C@H](CCC(N)=O)NC(=O)[C@H](CC(C)C)NC(=O)[C@H](CC(C)C)NC(=O)[C@H](Cc1ccc(O)cc1)NC(=O)[C@]1(C)CCCC=CC[C@]2(CCCN2C(C)=O)C(=O)N[C@@H](CC(C)C)C(=O)N[C@@H](CC(C)C)C(=O)N1 [PLL5-3, Ac-PL3-Leu-Leu-S5-Tyr-Leu-Leu-Gln-Tyr-NHMe] (Ac-[X1]LL[S5]YLLQY-NHMe; staple 1-4)	83 ± 1	–	≤ 0.1	3.5	–	–	–
C=CCCC[C@](C)(NC(=O)[C@H](CC(C)C)NC(=O)[C@H](CC(C)C)NC(=O)[C@]1(CC=C)CCCN1C(C)=O)C(=O)N[C@@H](CCCNC(=N)N)C(=O)N[C@@H](CC(C)C)C(=O)N[C@@H](CC(C)C)C(=O)N[C@@H](Cc1c[nH]cn1)C(=O)N[C@@H](CC(=O)O)C(=O)NC [PLL7-9 variant 5, Ac-PL3-Leu-Leu-S5-Arg-Leu-Leu-His-Asp-NHMe] (Ac-[αAllylPro]LL[S5]RLLHD-NHMe)	91 ± 2	2.5	0.5 ± 0.1	–	–	–	–
CC(=O)N1CCC[C@]12CC=CCCC[C@@](C)(C(=O)N[C@@H](Cc1ccc(O)cc1)C(=O)N[C@@H](CC(C)C)C(=O)N[C@@H](CC(C)C)C(=O)N[C@@H](CC(=O)O)C(N)=O)NC(=O)[C@H](CC(C)C)NC(=O)[C@H](CC(C)C)NC2=O (single isomer, unassigned) [PLL4-10 variant 3, Ac-PL3-Leu-Leu-S5-Tyr-Leu-Leu-Asp-NH2]	106 ± 2	2.2	0.3 ± 0.1	–	–	–	–
C=CCCC[C@](C)(NC(=O)[C@H](CC(C)C)NC(=O)[C@H](C)NC(=O)[C@]1(CC=C)CCCN1C(C)=O)C(=O)N[C@@H](Cc1c[nH]cn1)C(=O)N[C@@H](CC(C)C)C(=O)N[C@@H](CC(C)C)C(=O)N[C@@H](CC(N)=O)C(=O)NC [PLL7-20 variant 5, Ac-PL3-Ala-Leu-S5-His-Leu-Leu-Asn-NHMe] (Ac-[αAllylPro]AL[S5]HLLN-NHMe)	88 ± 4	2.7	0.3 ± 0.1	–	–	–	–
C=CCCC[C@](C)(NC(=O)[C@H](CC(C)C)NC(=O)[C@H](CC1CC1)NC(=O)[C@]1(CC=C)CCCN1C(C)=O)C(=O)N[C@@H](Cc1ccc(O)cc1)C(=O)N[C@@H](CC(C)C)C(=O)N[C@@H](CC(C)C)C(=O)N[C@@H](CCC(N)=O)C(=O)N[C@@H](CC(=O)O)C(=O)NC [PLL7-7 variant 5, Ac-PL3-Cpa-Leu-S5-Tyr-Leu-Leu-Gln-Asp-NHMe] (Ac-[αAllylPro][Ala(cPr)]L[S5]YLLQD-NHMe)	84 ± 2	2.3	0.3 ± 0.1	–	–	–	–
CC(=O)CC(c1ccccc1)c1c(O)c2ccccc2oc1=O (centres unmarked) [Warfarin, reference compound]	–	–	8.6 ± 0.3	–	8.6 ± 0.3 (x10^−6) cm/sec	7 to 11	–
CC(=O)N1CCC[C@]12CC=CCCC[C@@](C)(C(=O)N[C@@H](Cc1ccc(O)cc1)C(=O)N[C@@H](CC(C)C)C(=O)N[C@@H](CC(C)C)C(=O)N[C@@H](CCC(N)=O)C(=O)N[C@@H](CC(=O)O)C(N)=O)NC(=O)[C@H](CC(C)C)NC(=O)[C@H](CC1CC1)NC2=O (single isomer, unassigned) [PLL7-7 variant 3, Ac-PL3-Cpa-Leu-S5-Tyr-Leu-Leu-Gln-Asp-NH2]	75 ± 1	1.8	0.5 ± 0.1	–	–	–	–
CNC(=O)[C@H](CC(=O)O)NC(=O)[C@H](CC(=O)O)NC(=O)[C@H](CC(C)C)NC(=O)[C@H](CC(C)C)NC(=O)[C@H](Cc1ccc(O)cc1)NC(=O)[C@]1(C)CCCC=CC[C@]2(CCCN2)C(=O)N[C@@H](CC(C)C)C(=O)N[C@@H](CC(C)C)C(=O)N1 (single isomer, unassigned) [PLL5-2 variant 1, H-PL3-Leu-Leu-S5-Tyr-Leu-Leu-Asp-Asp-NHMe]	69 ± 2	1.4	0.4 ± 0.1	–	–	–	–
CNC(=O)[C@H](Cc1ccc(O)cc1)NC(=O)[C@H](CC(=O)O)NC(=O)[C@H](CC(C)C)NC(=O)[C@H](CC(C)C)NC(=O)[C@H](Cc1ccc(O)cc1)NC(=O)[C@]1(C)CCCC=CC[C@]2(CCCN2C(C)=O)C(=O)N[C@@H](CC(C)C)C(=O)N[C@@H](CC(C)C)C(=O)N1 [PLL5-1, Ac-PL3-Leu-Leu-S5-Tyr-Leu-Leu-Asp-Tyr-NHMe] (Ac-[X1]LL[S5]YLLDY-NHMe; staple 1-4)	36 ± 1	–	≤ 0.1	2.4	–	–	–
CNC(=O)[C@H](CC(=O)O)NC(=O)[C@H](CC(=O)O)NC(=O)[C@H](CC(C)C)NC(=O)[C@H](CC(C)C)NC(=O)[C@H](Cc1ccc(O)cc1)NC(=O)[C@]1(C)CCCC=CC[C@]2(CCCN2C(C)=O)C(=O)O[C@@H](CC(C)C)C(=O)N[C@@H](CC(C)C)C(=O)N1 (single isomer, unassigned) [PLL5-2 variant 2, Ac-PL3-Lec-Leu-S5-Tyr-Leu-Leu-Asp-Asp-NHMe]	47 ± 6	–	≤ 0.1	–	–	–	1.9
CNC(=O)[C@H](CC(N)=O)NC(=O)[C@H](CC(N)=O)NC(=O)[C@H](CC(C)C)NC(=O)[C@H](CC(C)C)NC(=O)[C@H](CC1CC1)NC(=O)[C@]1(C)CCCC=CC[C@]2(CCCN2C(C)=O)C(=O)N[C@@H](C)C(=O)N[C@@H](CC(C)C)C(=O)N1 (single isomer, unassigned) [PLL7-11, Ac-PL3-Ala-Leu-S5-Cpa-Leu-Leu-Asn-Asn-NHMe]	103 ± 2	2.6	0.9 ± 0.2	–	–	–	–
CNC(=O)[C@H](CC(=O)O)NC(=O)[C@H](Cc1c[nH]cn1)NC(=O)[C@H](CC(C)C)NC(=O)[C@H](CC(C)C)NC(=O)[C@H](CCCNC(=N)N)NC(=O)[C@]1(C)CCCC=CCCC[C@](C)(NC(C)=O)C(=O)N[C@@H](C)C(=O)N[C@@H](CC(C)C)C(=O)N[C@@H](CC(C)C)C(=O)N1 [PLL7-9 variant 4, Ac-S5-Ala-Leu-Leu-S5-Arg-Leu-Leu-His-Asp-NHMe] (Ac-[S5]ALL[S5]RLLHD-NHMe; staple 1-5)	101 ± 24	2.7	≤ 0.1	–	–	–	–
CCCC[C@@H]1NC(=O)[C@H](CC(C)C)NC(=O)[C@]2(CC=CCCC[C@@](C)(C(=O)N[C@@H](CC(C)C)C(=O)N[C@@H](CC(C)C)C(=O)N[C@@H](Cc3c[nH]cn3)C(=O)N[C@@H](Cc3ccc(O)cc3)C(=O)NC)NC1=O)CCCN2C(C)=O (single isomer, unassigned) [PLL4-9, Ac-PL3-Leu-Nle-S5-Leu-Leu-His-Tyr-NHMe]	43 ± 3	3.3	≤ 0.1	–	–	–	–
CC(=O)N1CCC[C@]12CC=CCCC[C@@](C)(C(=O)N[C@@H](CCCNC(=N)N)C(=O)N[C@@H](CC(C)C)C(=O)N[C@@H](CC(C)C)C(=O)N[C@@H](Cc1c[nH]cn1)C(=O)N[C@@H](CC(=O)O)C(N)=O)NC(=O)[C@H](CC(C)C)NC(=O)[C@H](CC(C)C)NC2=O (single isomer, unassigned) [PLL7-9 variant 3, Ac-PL3-Leu-Leu-S5-Arg-Leu-Leu-His-Asp-NH2]	98 ± 10	1.9	0.5 ± 0.1	–	–	–	–
Ac-PL3-Lec-Leu-S5-Tyr-Leu-Leu-Asp-NHMe [PLL4-10 variant 2]	92 ± 10	–	–	–	≤0.1 (×10^−6) cm/sec	–	–
